We go through ten molecules from patent publication US7186736B1, “NNI for treatment of multi-drug resistant HIV” (Parker Hughes Institute, priority 1999, dated 2007).

Read-outs that look alike come from different tables or passages of the source. Some results are limits rather than exact numbers.

The subject of data set [1] is HIV strain A17 (Y181C). Nature of the data set: p24 production in PBMNC infected with A17. The data set is classed as cell-based, HIV-1. To be noted: for IC50: Human immunodeficiency virus 1, read-out: IC50 p24. The procedure:
(§1) Normal human peripheral blood mononuclear cells (PBMNC) from HIV-negative donors were cultured 72 hours in RPMI 1640 supplemented with 20% (v/v) heat-inactivated fetal bovine serum (FBS), 3% interleukin-2, 2 mM L-glutairtine, 25 mM HEPES, 2 μL, NAHCO, […] gentamicin, and 4 μg/mL phytohemagglutinin prior to exposure to HIV-I at a multiplicity of infection (MOI) of 0.1 during a one-hour adsorption period at 37'C in a humidified 5% C02 atmosphere. Subsequently, cells were cultured in 96-well microliter plates (100 μl/well; 2×10^6 cells/mL, triplicate wells) in the presence of various inhibitor concentrations and aliquots of culture supernatants were removed from the wells on the 7th day after infection for p24 antigen p24 enzyme immunoassays (EIA), as previously described. (see Erice et. al., 1993, Antiimicrob. Ag. Chemotherapy 37:835–838) The applied p24 EIA was the unmodified kinetic assay commercially available from Coulter Corporation/Immunotech, Inc. (Westbrooke, Me.), which utilizes a murine monoclonal antibody to HIV core protein coated onto microwell strips to which the antigen present in the test culture supernatant samples binds. Percent inhibition of viral replication was calculated by comparing the p24 values from the test substance treated infected cells with p24 values from untreated infected cells (i.e., virus controls). In parallel, the effects of various treatments on cell viability were also examined, as described in Enrice et. al., supra. In brief, non-infected PBNWC were treated with each compound for 7 days under identical experimental conditions. A Microculture Tetrazolium Assay (NTFA), using 2,3-bis(2-methoxy-4 nitro-5-sulfophenyl)-5-[(phenylamino)-carbonyl]-2H-tetrazolium hydroxide (XTT), was performed to quantitate cellular proliferation.

Data set [2] deals with HIV strain A17 variant (Y181C, K103N). Nature of the data set: p24 production in PBMNC infected with A17 variant. The data set is classed as cell-based, HIV-1. To be noted: Human immunodeficiency virus 1, read-out: IC50 p24. The procedure: as §1
For data set [3], the system named is HIV strain RT-MDR (74V, 41L, 106A, 215Y). In words: microbe, parasite or virus in culture. The data set is classed as cell-based, HIV-1. To be noted: for times less potent than DDE240: multiple drug resistant mutant strain. As for the experimental part: (§2) Percent inhibition of viral replication was calculated by comparing the p24 values from the test substance treated infected cells with p24 values from untreated infected cells (i.e., virus controls). In parallel, the effects of various treatments on cell viability were also examined, as described in Enrice et. al., supra. In brief, non-infected PBNWC were treated with each compound for 7 days under identical experimental conditions. A Microculture Tetrazolium Assay (NTFA), using 2,3-bis(2-methoxy-4 nitro-5-sulfophenyl)-5-[(phenylamino)-carbonyl]-2H-tetrazolium hydroxide (XTT), was performed to quantitate cellular proliferation.

Data set [4] has as its system HIV strain HTLV-IIIB (WT). In words: p24 production in PBMNC infected with HTLV-IIIB. The data set is classed as cell-based, HIV-1. The procedure:
as §2

For data set [5], the target named is T1, purified recombinant HIV RT (Human immunodeficiency virus type 1 group M subtype B, UniProt P04585).
T1 construct: purified recombinant HIV RT
In words: Purified RT assay, cell-free Quan-T-RT system (scintillation proximity). To be noted: for IC50: recombinant HIV RT, cell-free. The data set is classed as biochemical. As for the experimental part: The primer DNA is a 16-mer oligo(T) which has been annealed to a poly(A) template. The primer/template is bound to a strepavidin-coated SPA bead.
3H-TTP is incorporated into the primer by reverse transcription. […] The compound being tested was added to the reaction mixture at 0.001 μM–100 μM concentrations. […] The reaction was stopped by addition of 0.2 ml of 120 mM EDTA. The samples were counted in an open window using a Beckman LS 7600 instrument and IC, values were calculated by comparing the measurements to untreated samples.

Setting [6] is: Human immunodeficiency virus 1, read-out: IC50 p24, RT-MDR (74V, 41L, 106A, 215Y), PBMNC.
Where [7] appears, read: Human immunodeficiency virus 1, HTLV IIIB WT, PBMNC, read-out: IC50 p24.
[8] abbreviates: Human immunodeficiency virus 1, IIIB, HIV replication assay.
Setting [9] is: Human immunodeficiency virus 1, HTLV IIIB, PBMNC, read-out: IC50[p24].

For `CC(C)Nc1cccnc1N1CCN(C(=O)c2cc3cc(NS(C)(=O)=O)ccc3[nH]2)CC1` [Delavirdine, reference compound], the IC50 in data set [1] is 50000 nM; in data set [2], over 100000 nM; in data set [3] (setting [6]) it was 400 nM; in data set [4] (setting [7]), 9 nM.
On to `Fc1cccc(CCNC(=S)Nc2ccc(Br)cn2)c1` [DDE241], for which the IC50 was 760 nM in data set [5] (read-out: RRT (IC50[rRT])), 20 nM in data set [3] (setting [6]) and under 1 nM in data set [4] (setting [7]).
In the case of `COc1ccc(OC)c(CCNC(=S)Nc2ccc(Br)cn2)c1` [DDE236, N-[2-(2,5-dimethoxyphenylethyl)]-N′-[2-(5-bromopyridyl)]-thiourea], the melting point is 133 to 138 °C. The IC50 in data set [1] is 100 nM. Also, in data set [2], the IC50 was 11000 nM. Also, the “times more potent than trovirdine” value in data set [5] (purified recombinant HIV-RT) worked out at 8 times. Besides, the IC50 in data set [3] (setting [6]) was found to be 5 nM. The “IC90 fold better than AZT” value in data set [4] (HIV replication assay) is 10 fold. The 90% effect concentration (IC90) in data set [4] (setting [8]) stood at 9 nM. In data set [4] (setting [7]), the IC50 is under 1 nM. Further, in data set [4] (calculated), the “selectivity index (IC50[MTA]/IC50[p24])” value was > 10^5.
Take `Fc1ccc(CCNC(=S)Nc2ccc(Br)cn2)cc1` [DDE242]: the IC50 in data set [5] (RRT (IC50[rRT])) stood at 6000 nM; in data set [5] (read-out: RRT (IC50[rRT])), 6060 nM; in data set [4] (setting [9]), 10 nM.
As for `Cc1ccnc2c1NC(=O)c1cccnc1N2C1CC1` [Nevirapine, reference compound], the IC50 in data set [1] is over 100000 nM; in data set [2], over 100000 nM; in data set [3] (setting [6]), 5000 nM; in data set [4] (setting [7]) it was 34 nM.
As for `S=C(NCCc1ccccn1)Nc1ccc(Br)cn1` [Trovirdine, reference compound], the IC50 in data set [3] (Human immunodeficiency virus 1, read-out: IC50 p24) is 20 nM; in data set [4] (Human immunodeficiency virus 1, IIIB, read-out: IC50 p24) it was 7 nM. Further, the “times less potent than DDE240” value was “up to 7 times” in data set [3], “three times less potent” in data set [3] (listed as Trouviridine) and 10 times in data set [4] (zidovudine-sensitive strain HTLV IIIB).
Take `CCOCn1c(Cc2ccccc2)c(C(C)C)c(=O)[nH]c1=O` [MKC-442, reference compound]: the IC50 in data set [5] (read-out: RRT (IC50[rRT])) came to 800 nM; in data set [3] (setting [6]), 300 nM.
In the case of `Fc1ccccc1CCNC(=S)Nc1ccc(Br)cn1` [DDE240, N-[2-(2-fluorophenethyl)]-N′-[2-(5-bromopyridyl)]-thiourea], the melting point lay in the range of 156 to 157 °C. Moreover, the IC50 in data set [1] amounted to 200 nM. Moreover, in data set [1] (Y181C mutant), the “times better activity than delavirdine” value was found to be 200 times and the “times more potent than nevirapine” value is “more than 500 times”. The IC50 in data set [2] was 41000 nM. For the same molecule, the IC50 in data set [3] (setting [6]) worked out at 6 nM. In addition, in data set [3] (MDR HIV), the “fold better activity than delavirdine” value stood at 100 fold and the “fold better activity than nevirapine” value is 800 fold. Also, the IC50 in data set [3] (read-out: IC50 p24, RT-MDR (74V, 41L, 106A, 215Y), PBMNC) amounted to 5 nM. The half-inhibitory concentration (IC50) in data set [4] (setting [7]) is under 1 nM. Besides, in data set [4] (setting [9]), the half-maximal inhibitory concentration (IC50) is under 1 nM.
Turning to `Cc1cn([C@H]2C[C@H](N=[N+]=[N-])[C@@H](CO)O2)c(=O)[nH]c1=O` [AZT, reference compound], the IC50 in data set [1] stood at 6 nM; in data set [3] (setting [6]) it was 150 nM. The same molecule came in with an IC90 in data set [4] (setting [8]) of 100 nM.
With `S=C(NCCc1ccccc1Cl)Nc1ccc(Br)cn1` [DDE253], the results for the IC50 in data set [3] (setting [6]) and in data set [4] (setting [7]) were 4 nM and under 1 nM, respectively.
